{"source": "paper PMC9821324", "about": "“Pinostrobin Suppresses the α-Melanocyte-Stimulating Hormone-Induced Melanogenic Signaling Pathway” (International Journal of Molecular Sciences, 2023)", "biological_target": "T1, mushroom tyrosinase (Agaricus bisporus, UniProt C7FF04)", "T1 construct": "gene PPO3", "T1 sequence (C7FF04 2-392)": "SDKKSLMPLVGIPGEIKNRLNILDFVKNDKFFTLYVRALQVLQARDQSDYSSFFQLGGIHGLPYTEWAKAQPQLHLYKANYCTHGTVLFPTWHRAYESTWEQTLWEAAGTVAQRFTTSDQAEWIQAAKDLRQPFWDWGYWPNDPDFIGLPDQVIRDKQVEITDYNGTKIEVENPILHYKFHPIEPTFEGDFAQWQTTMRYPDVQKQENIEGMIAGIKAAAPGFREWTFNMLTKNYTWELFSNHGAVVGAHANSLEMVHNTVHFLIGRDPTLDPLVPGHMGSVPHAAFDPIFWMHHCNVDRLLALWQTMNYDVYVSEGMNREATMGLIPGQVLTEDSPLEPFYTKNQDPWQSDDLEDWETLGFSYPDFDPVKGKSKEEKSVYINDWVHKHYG", "test": "cell-free mushroom tyrosinase assay with L-tyrosine, absorbance at […] nm, single concentration […]", "type": "biochemical", "conditions": "read-out: % inhibition at 250 nM", "data": [{"smiles": "NC(=S)Nc1ccccc1", "note": "[PTU, phenylthiourea]", "values": [{"measurement": "inhibition at 0.25 µM", "value": 74.7, "unit": "%"}]}]}
